Molecules are shown by their SMILES.

`CNC(=O)N(C)S(=O)(=O)c1cccnc1`: the logP – broadly, the decadic logarithm of the partition coefficient of the neutral form, usually between octanol and water – was 0.42. The figure for `CC(C)NC(=O)NS(=O)(=O)c1ccccc1` is 1.34.

In the case of `CC(C)(C)NC(=O)NS(=O)(=O)c1ccccc1`, the lipophilicity (logP) came out at 1.95. For `NC(=O)NS(=O)(=O)c1cccnc1` the value was -0.65; for `NC(=O)NS(=O)(=O)c1ccccc1`, 0.28; for `CN(C)C(=O)NS(=O)(=O)Cc1ccccc1`, 0.54. The compound `CNC(=O)NS(=O)(=O)c1cccnc1` returned a logP of -0.45.

`CCN(CC)C(=O)NS(=O)(=O)c1ccccc1` had a logP of 0.99.

`CNC(=O)NS(=O)(=O)Cc1ccccc1`: the logP came to 0.54. The figure for `CCCNC(=O)NS(=O)(=O)c1ccccc1` is 1.44; for `CNC(=O)NS(=O)(=O)c1ccccc1` it is 0.44. For `CN(C)C(=O)NS(=O)(=O)c1ccccc1` the value was 0.28. The compound `CNC(=O)N(C)S(=O)(=O)Cc1ccccc1` came in with a lipophilicity (logP) of 1.18. For `CCNC(=O)NS(=O)(=O)c1ccccc1` the value was 0.9.

For the origin of these results see the OPERA property sets (Mansouri et al. 2018).
